Data as given in ChEMBL document CHEMBL5244260, “Aldose reductase and protein tyrosine phosphatase 1B inhibitors as a promising therapeutic approach for diabetes mellitus” (Eur J Med Chem, 2020).
Each block holds one molecule with its values, some of them ahead of it.

Experiments:
[1] = Inhibition of ALR2 in Wistar rat lens using D,L-glyceraldehyde as substrate preincubated for 1 min in presence of NADPH followed by substrate addition and measured after 4 mins by spectrophotometric assay; type: tissue-based
[2] = biological target: T1, Peroxisome proliferator-activated receptor gamma (Homo sapiens, UniProt P37231); assay: Agonist activity at Gal4-PPARgamma (unknown origin) transfected in HCT-116 cells incubated for 24 hrs by luciferase reporter assay; type: cell-based
T1 sequence (P37231 whole entry): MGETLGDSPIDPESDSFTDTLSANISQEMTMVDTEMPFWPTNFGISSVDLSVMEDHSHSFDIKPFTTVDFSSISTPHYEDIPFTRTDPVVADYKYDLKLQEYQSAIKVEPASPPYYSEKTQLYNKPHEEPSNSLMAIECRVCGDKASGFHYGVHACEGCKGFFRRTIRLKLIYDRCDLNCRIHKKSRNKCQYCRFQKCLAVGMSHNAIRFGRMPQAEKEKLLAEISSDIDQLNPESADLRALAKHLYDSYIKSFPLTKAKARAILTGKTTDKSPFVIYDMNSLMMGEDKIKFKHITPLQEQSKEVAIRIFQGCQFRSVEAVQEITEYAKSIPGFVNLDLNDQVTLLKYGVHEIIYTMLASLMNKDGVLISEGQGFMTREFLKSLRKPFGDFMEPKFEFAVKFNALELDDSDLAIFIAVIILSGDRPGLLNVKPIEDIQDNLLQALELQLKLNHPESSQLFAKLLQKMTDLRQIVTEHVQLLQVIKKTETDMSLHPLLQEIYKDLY

Alpha-glucosidase = Alpha-glucosidase (Saccharomyces cerevisiae S288c, UniProt P53341+P38158+P07265); assay: Inhibition of yeast alpha-glucosidase using PNP-G as substrate preincubated for 10 mins followed by substrate addition by spectrophotometer microplate reader assay; type: protein assay
[3] = biological target: T2, Tyrosine-protein phosphatase non-receptor type 1 (Homo sapiens, UniProt P18031); assay: Inhibition of human recombinant GST-tagged PTP1B (1 to 321 residues) expressed in Escherichia coli using pNPP as substrate preincubated for 10 mins followed by substrate addition and measured after 30 mins by microplate reader assay
T2 sequence (P18031 whole entry): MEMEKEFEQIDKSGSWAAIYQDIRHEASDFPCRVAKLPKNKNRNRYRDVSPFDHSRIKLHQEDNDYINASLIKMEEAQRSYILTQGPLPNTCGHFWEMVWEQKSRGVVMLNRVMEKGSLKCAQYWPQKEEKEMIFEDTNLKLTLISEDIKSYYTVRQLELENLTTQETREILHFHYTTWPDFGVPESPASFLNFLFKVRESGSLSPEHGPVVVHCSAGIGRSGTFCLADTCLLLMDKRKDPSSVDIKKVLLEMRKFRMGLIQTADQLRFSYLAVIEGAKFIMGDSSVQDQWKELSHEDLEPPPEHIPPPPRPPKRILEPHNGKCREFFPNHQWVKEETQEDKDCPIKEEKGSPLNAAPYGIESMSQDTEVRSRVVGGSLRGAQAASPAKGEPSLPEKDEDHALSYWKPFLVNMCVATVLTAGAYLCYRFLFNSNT

[4] = biological target: T3, Prostaglandin G/H synthase 2 (Homo sapiens, UniProt P35354); assay: Inhibition of COX-2 (unknown origin) by spectrophotometer assay
T3 sequence (P35354 whole entry): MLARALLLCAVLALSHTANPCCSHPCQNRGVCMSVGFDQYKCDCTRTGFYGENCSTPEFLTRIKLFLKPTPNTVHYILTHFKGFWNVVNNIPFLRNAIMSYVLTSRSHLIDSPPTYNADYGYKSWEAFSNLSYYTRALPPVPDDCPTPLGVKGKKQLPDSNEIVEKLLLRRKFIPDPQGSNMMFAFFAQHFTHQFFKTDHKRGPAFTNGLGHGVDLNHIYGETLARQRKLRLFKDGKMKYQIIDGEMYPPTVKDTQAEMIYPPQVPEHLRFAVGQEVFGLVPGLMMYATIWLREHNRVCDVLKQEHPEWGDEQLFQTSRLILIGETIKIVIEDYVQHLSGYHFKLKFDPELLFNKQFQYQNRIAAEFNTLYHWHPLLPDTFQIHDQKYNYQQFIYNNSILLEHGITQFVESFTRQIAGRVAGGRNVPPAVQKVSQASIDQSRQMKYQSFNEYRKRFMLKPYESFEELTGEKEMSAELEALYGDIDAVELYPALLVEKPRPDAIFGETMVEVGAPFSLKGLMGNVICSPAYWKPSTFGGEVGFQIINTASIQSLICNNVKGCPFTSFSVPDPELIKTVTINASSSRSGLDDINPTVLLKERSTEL

[5] = biological target: Aldo-keto reductase family 1 member B1 (Homo sapiens, UniProt P15121); assay: Inhibition of ALR2 (unknown origin) using D,L-glyceraldehyde as substrate incubated for 10 mins in presence of NADPH by UV-spectrophotometric assay
Mus musculus = assay: Hypoglycemic activity in alloxan monohydrate induced diabetic model of BALB/c mouse assessed as decrease in glucose level at 10 mg/kg,po measured upto 8 hrs by glucometer; type: functional; set-up: scale not given: the % may be the effect or the level left
[6] = biological target: T2, Tyrosine-protein phosphatase non-receptor type 1; assay: Inhibition of human recombinant GST-tagged PTP1B (1 to 321 residues) expressed in Escherichia coli using pNPP as substrate by spectrophotometer assay
[7] = biological target: T2, Tyrosine-protein phosphatase non-receptor type 1; assay: Inhibition of human recombinant PTP1B using pNPP as substrate incubated for 40 min
[8] = biological target: T2, Tyrosine-protein phosphatase non-receptor type 1; assay: Inhibition of human PTP1B using pNPP as substrate incubated for 30 min by UV-Visible spectrophotometer assay
[9] = Inhibition of ALR2 in rabbit lens using D,L-glyceraldehyde as substrate preincubated for 1 min in presence of NADPH followed by substrate addition and measured after 4 mins by spectrophotometric assay; type: tissue-based, Oryctolagus cuniculus
[10] = biological target: T2, Tyrosine-protein phosphatase non-receptor type 1; assay: Inhibition of PTP1B (unknown origin) using DiFMUP as substrate incubated for 30 min by fluorescence based microplate reader assay
Homo sapiens = species on record: Homo sapiens; assay: Selectivity ratio of IC50 for PTP1B (unknown origin) to IC50 for TCPTP (unknown origin)
[11] = biological target: T2, Tyrosine-protein phosphatase non-receptor type 1; assay: Inhibition of PTP1B (unknown origin) using pNPP as substrate

IC50 [1]: 0.46 µM
EC50 [2]: > 47.4 µM
Structure (SMILES): O=C(O)Cn1ccc2cc(OCc3ccccc3)ccc21

IC50 (Alpha-glucosidase): 0.11 µM
IC50 [3]: 17.8 µM
IC50 [4]: 2.81 µM
Structure (SMILES): CC(=O)c1cc2cc(-c3cccc(Cl)c3)oc2cc1O

Structure (SMILES): O=C1NC(=O)C2(CCCCC2)N1S(=O)(=O)c1ccc(Cl)s1
IC50 [5]: 0.47 µM
Activity (Mus musculus): 79%

IC50 [6]: 2.9 µM
Structure (SMILES): O=C1/C(=C/c2ccc(-c3ccccc3)cc2)NC(=S)N1c1ccccc1

IC50 [7]: 31 µM
Structure (SMILES): O=C(NCCCN1C[C@@H](O)[C@H](O)[C@H]1CO)c1ccc([N+](=O)[O-])cc1

IC50 [8]: 2.9 µM
Structure (SMILES): C[C@@]12CCC[C@](C)(C(=O)O)[C@H]1CCc1cc(OCC(=O)Oc3ccccc3C(=O)O)ccc12

IC50 [9]: 7 µM
Structure (SMILES): O=C(O)Cn1ccc2ccccc21

IC50 [10]: 0.6 µM
Structure (SMILES): O=c1c2cc(O)c(O)cc2oc2cc(OCc3cccc(Cl)c3F)cc(O)c12

Ratio IC50 (Homo sapiens): 116
IC50 [11]: 0.005 µM
Structure (SMILES): O=C(c1ccccc1)C(Cc1ccc2cc(Br)c(C(F)(F)P(=O)(O)O)cc2c1)(c1ccc2cc(C(F)(F)P(=O)(O)O)c(Br)cc2c1)n1nnc2ccccc21 (centres undefined)
